Laboratory results reported in patent US11512280B2, “Method for culturing spore-forming bacteria, and method for producing useful substance” (priority 2016, dated 2022).

What was measured:
Format in all cases: cell-based
[1] = tested on: Bacillus subtilis MBI-600 strain; test: Culture of Bacillus subtilis in Table 5 medium with sporulation-inhibiting substance, 50 hours, cell and spore counts (Example 4); settings: for Bacterial cell concentration: carbon content 18.2 g/L
Experimental: Using a 500 ml Erlenmeyer flask (with baffles), each 100 ml of media listed in Table 5 was prepared and then autoclave sterilization was carried out. Note that glucose was separately sterilized and aseptically mixed in order to avoid Maillard reaction. According to the conditions of each test section, the filter-sterilized aqueous solution of each sporulation-inhibiting substance was added aseptically to each medium. According to the conditions of each test section, one loopful of Bacillus subtilis MBI-600 strain was taken from a colony grown on a nutrient agar medium, inoculated, and then cultured with shaking at 30° C. and 150 rpm. Fifty (50) hours after the start of culture, culture was stopped.

[2] = tested on: Bacillus thuringiensis NBRC 101235 strain; test: Culture of Bacillus thuringiensis with sporulation-inhibiting substance, 40 hours (Example 3); settings: for Bacterial cell concentration / Spore concentration / Sporulation rate: 40 hours culture
Experimental: Using a 500 ml Erlenmeyer flask (with baffles), each 100 ml of media listed in Table 1 was prepared and then autoclave sterilization was carried out. Note that glucose was separately sterilized and aseptically mixed in order to avoid Maillard reaction.
According to the conditions of each test section, the filter-sterilized aqueous solution of each sporulation-inhibiting substance was added aseptically to each medium. According to the conditions of each test section, one loopful of Bacillus thuringiensis NBRC 101235 strain was taken from a colony grown on a nutrient agar medium, inoculated, and then cultured with shaking at 30° C. and 150 rpm for 40 hours.
(§1) Each of the thus obtained culture liquid was diluted 10-fold with sterile water, and then the bacterial cell concentration (vegetative cells and spores) and the sporulation rate (spore concentration/bacterial cell concentration) were measured using an optical microscope and a bacterial cell counter.

[3] = tested on: Bacillus subtilis MBI-600; test: Culture of Bacillus subtilis with sporulation-inhibiting substance, 64 hours (Example 1)
Experimental: Using a 500 ml Erlenmeyer flask (with baffles), each 100 ml of media listed in Table 1 was prepared and then autoclave sterilization was carried out. Glucose was separately sterilized and aseptically mixed in order to avoid Maillard reaction.
According to the conditions of each test section, the filter-sterilized aqueous solution of each sporulation-inhibiting substance was added aseptically to each medium. One loopful of Bacillus subtilis MBI-600 was taken from a colony grown on a nutrient agar medium, inoculated, and then cultured with shaking at 30° C. and 150 rpm for 64 hours.
as §1

[4] = tested on: Bacillus subtilis MBI-600 strain; test: Surfactin production by Bacillus subtilis, HPLC of culture supernatant (Example 4)
Experimental: Using a 500 ml Erlenmeyer flask (with baffles), each 100 ml of media listed in Table 5 was prepared and then autoclave sterilization was carried out. Note that glucose was separately sterilized and aseptically mixed in order to avoid Maillard reaction.
According to the conditions of each test section, the filter-sterilized aqueous solution of each sporulation-inhibiting substance was added aseptically to each medium. According to the conditions of each test section, one loopful of Bacillus subtilis MBI-600 strain was taken from a colony grown on a nutrient agar medium, inoculated, and then cultured with shaking at 30° C. and 150 rpm.
Fifty (50) hours after the start of culture, culture was stopped.
Each of the obtained cultured liquid was centrifuged using a refrigerated centrifuge (TOMY SEIKO Co., Ltd. MX-307) at 10,000 rpm and 20° C. for 30 minutes, thereby collecting a supernatant.
To a solid-phase extraction column (Nihon Waters K.K. Oasis HLB 3 cc (400 mg) LP Extraction Cartridge), 3 ml of 0.1% TFA-containing acetonitrile was added and allowed to pass therethrough, and then 3 ml of 0.1% TFA-containing distilled water was added to pass through the column. Two ml of the thus collected centrifugal supernatant of each culture medium was added to pass through the column, 6 ml of 0.1% TFA-containing distilled water, and then 3 ml of 0.1% TFA-containing acetonitrile/distilled water (20:80, v/v) were allowed to pass through the column in sequence for washing. Next, 3 ml of 0.1% TFA-containing acetonitrile/distilled water (90:10, v/v) was allowed to pass through the column, thereby collecting an eluate. 0.1% TFA-containing acetonitrile/distilled water (90:10, v/v) was added, so that the amount of the collected solution was 4 ml, and then HPLC analysis was conducted under the following conditions.
HPLC: Agilent Technologies, Inc. 1260 Infinity […]
Each medium was compared with the authentic sample in terms of peak area detected at the elution time of 27.6 minutes and that of 28.4 minutes, thereby calculating the surfactin concentration in the culture medium.

[5] = 0.1 ppm added, 64 hours culture
[6] = 1.0 ppm added, 64 hours culture

**Q.** For `CC[C@H]1OC(=O)[C@H](C)[C@@H](O[C@H]2C[C@@](C)(OC)[C@@H](O)[C@H](C)O2)[C@H](C)[C@@H](O[C@@H]2O[C@H](C)C[C@H](N(C)C)[C@H]2O)[C@](C)(O)C[C@@H](C)C(=O)[C@H](C)[C@@H](O)[C@]1(C)O` [Erythromycin], which Spore concentration ([1]; 0.1 ppm and 0.2 ppm) is on record?
**A.** Its Spore concentration is “tended to increase”.

**Q.** What about the Spore concentration ([1]; 0.1 ppm, 50 hours culture) of the same compound?
**A.** The Spore concentration was 8e+09 mL⁻¹.

**Q.** What about the Sporulation rate ([1]; 0.1 ppm, 50 hours culture) of the same compound?
**A.** The Sporulation rate was 99%.

**Q.** And the Bacterial cell concentration ([1]; 0.1 ppm, 50 hours culture)?
**A.** Its Bacterial cell concentration is 8.1e+09 mL⁻¹.

**Q.** And the Spore concentration ([1]; 0.2 ppm, 50 hours culture)?
**A.** Its Spore concentration is 6.9e+09 mL⁻¹.

**Q.** And the Sporulation rate ([1]; 0.2 ppm, 50 hours culture)?
**A.** The Sporulation rate was 100%.

**Q.** What about the Bacterial cell concentration ([1]; 0.2 ppm, 50 hours culture) of the same compound?
**A.** The Bacterial cell concentration was 6.9e+09 mL⁻¹.

**Q.** What about the “bacterial cell concentration and spore concentration” value ([2]; 0.05 ppm) of the same compound?
**A.** Its value is “tended to increase”.

**Q.** And the Bacterial cell concentration ([2]; 0.05 ppm)?
**A.** The Bacterial cell concentration was 1.5e+09 mL⁻¹.

**Q.** And the Spore concentration ([2]; 0.05 ppm)?
**A.** The Spore concentration was 1.1e+09 mL⁻¹.

**Q.** What about the Sporulation rate ([2]; 0.05 ppm) of the same compound?
**A.** The Sporulation rate was 73%.

**Q.** And the “effect of inhibiting sporulation” value ([2]; 0.1 ppm)?
**A.** Its value is “confirmed”.

**Q.** What about the Bacterial cell concentration ([2]; 0.1 ppm) of the same compound?
**A.** The Bacterial cell concentration was 2e+09 mL⁻¹.

**Q.** What about the Spore concentration ([2]; 0.1 ppm) of the same compound?
**A.** Its Spore concentration is 3e+08 mL⁻¹.

**Q.** And the Sporulation rate ([2]; 0.1 ppm)?
**A.** Its Sporulation rate is 16%.

**Q.** And the “effect of inhibiting sporulation” value ([3]; 0.1 ppm)?
**A.** Its value is “not observed”.

**Q.** And the Spore concentration [3, 5]?
**A.** The Spore concentration was 2.8e+09 mL⁻¹.

**Q.** What about the Sporulation rate [3, 5] of the same compound?
**A.** The Sporulation rate was 80%.

**Q.** And the Bacterial cell concentration ([3]; 0.1 ppm added, 64 hours culture, carbon content 9.1 g/L)?
**A.** The Bacterial cell concentration was 3.5e+09 mL⁻¹.

**Q.** And the “effect of inhibiting sporulation” value ([3]; 1 ppm)?
**A.** The value was “observed”.

**Q.** What about the Bacterial cell concentration [3, 6] of the same compound?
**A.** The Bacterial cell concentration was 6.2e+09 mL⁻¹.

**Q.** What about the Sporulation rate [3, 6] of the same compound?
**A.** Its Sporulation rate is 0%.

**Q.** And the “bacterial cell concentrations as the concentration of the substance increased” value ([3]; trend over tested concentrations)?
**A.** Its value is “tended to increase”.

**Q.** What about the Surfactin concentration ([4]; 0.1 ppm and 0.2 ppm) of the same compound?
**A.** Its Surfactin concentration is “tended to increase”.

**Q.** And the Surfactin concentration ([4]; 0.1 ppm, 50 hours culture, in the culture medium)?
**A.** Its Surfactin concentration is 58.5 ppm.

**Q.** And the Surfactin concentration ([4]; 0.2 ppm, 50 hours culture, in the culture medium)?
**A.** The Surfactin concentration was 75.7 ppm.
